Test results as given in PubChem BioAssay (NCI).
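The concentration for 50% growth inhibition is given as GI50. TGI is the concentration that stops growth completely.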

Tests used:
Assay in all cases: NCI tumour cell line growth inhibition, 384-well format; in the data active means GI50 below about 0.43 µM; inactive means the rest
ACHN renal = tested on: ACHN renal
MDA-MB-468 breast = tested on: MDA-MB-468 breast
NCI-H322M lung = tested on: NCI-H322M lung
HS 578T breast = tested on: HS 578T breast
SN12C renal = tested on: SN12C renal
SK-MEL-28 melanoma = tested on: SK-MEL-28 melanoma
SNB-19 CNS = tested on: SNB-19 CNS
NCI/ADR-RES ovarian = tested on: NCI/ADR-RES ovarian
KM12 colon = tested on: KM12 colon
RPMI-8226 leukemia = tested on: RPMI-8226 leukemia
HCT-15 colon = tested on: HCT-15 colon
CCRF-CEM leukemia = tested on: CCRF-CEM leukemia
A549 NSCLC = tested on: A549 NSCLC
OVCAR-3 ovarian = tested on: OVCAR-3 ovarian
HCT-116 colon = tested on: HCT-116 colon
NCI-H460 NSCLC = tested on: NCI-H460 NSCLC
UACC-62 melanoma = tested on: UACC-62 melanoma
NCI-H23 lung = tested on: NCI-H23 lung
IGROV1 ovarian = tested on: IGROV1 ovarian
M14 melanoma = tested on: M14 melanoma
U251 glioblastoma = tested on: U251 glioblastoma
SW-620 colon = tested on: SW-620 colon
HOP-92 NSCLC = tested on: HOP-92 NSCLC
OVCAR-4 ovarian = tested on: OVCAR-4 ovarian
HCC-2998 colon = tested on: HCC-2998 colon
T-47D breast = tested on: T-47D breast
HT29 colon = tested on: HT29 colon
MALME-3M melanoma = tested on: MALME-3M melanoma
DU-145 prostate = tested on: DU-145 prostate
SF-295 CNS = tested on: SF-295 CNS
EKVX NSCLC = tested on: EKVX NSCLC
LOX IMVI melanoma = tested on: LOX IMVI melanoma
MDA-MB-435 melanoma = tested on: MDA-MB-435 melanoma
MCF7 breast = tested on: MCF7 breast
SF-268 CNS = tested on: SF-268 CNS
SK-OV-3 ovarian = tested on: SK-OV-3 ovarian
BT-549 breast = tested on: BT-549 breast
NCI-H522 lung = tested on: NCI-H522 lung
K-562 leukemia = tested on: K-562 leukemia
COLO 205 colon = tested on: COLO 205 colon
SK-MEL-5 melanoma = tested on: SK-MEL-5 melanoma
TK-10 renal = tested on: TK-10 renal
SNB-75 CNS = tested on: SNB-75 CNS
HOP-62 NSCLC = tested on: HOP-62 NSCLC
MOLT-4 leukemia = tested on: MOLT-4 leukemia
OVCAR-8 ovarian = tested on: OVCAR-8 ovarian
786-0 renal = tested on: 786-0 renal
UACC-257 melanoma = tested on: UACC-257 melanoma
PC-3 prostate = tested on: PC-3 prostate
RXF 393 renal = tested on: RXF 393 renal
OVCAR-5 ovarian = tested on: OVCAR-5 ovarian
SF-539 CNS = tested on: SF-539 CNS
NCI-H226 lung = tested on: NCI-H226 lung
UO-31 renal = tested on: UO-31 renal
HL-60(TB) leukemia = tested on: HL-60(TB) leukemia
MDA-MB-231 breast = tested on: MDA-MB-231 breast
CAKI-1 renal = tested on: CAKI-1 renal
A498 renal = tested on: A498 renal

COc1cc2cc(C(=O)CCC(=O)O)sc2cc1OC
45.8 µM: TGI (HL-60(TB) leukemia)
inactive: GI50 (ACHN renal) > 100 µM | GI50 (MDA-MB-468 breast) > 100 µM | GI50 (NCI-H322M lung) > 100 µM | GI50 (HS 578T breast) > 100 µM | GI50 (SN12C renal) > 100 µM | GI50 (SK-MEL-28 melanoma) > 100 µM | GI50 (SNB-19 CNS) > 100 µM | GI50 (NCI/ADR-RES ovarian) > 100 µM | GI50 (KM12 colon) > 100 µM | GI50 (RPMI-8226 leukemia) > 100 µM | GI50 (HCT-15 colon) > 100 µM | GI50 (CCRF-CEM leukemia) > 100 µM | GI50 (A549 NSCLC) > 100 µM | GI50 (OVCAR-3 ovarian) > 100 µM | GI50 (HCT-116 colon) > 100 µM | GI50 (NCI-H460 NSCLC) > 100 µM | GI50 (UACC-62 melanoma) > 100 µM | GI50 (NCI-H23 lung) > 100 µM | GI50 (IGROV1 ovarian) > 100 µM | GI50 (M14 melanoma) > 100 µM | GI50 (U251 glioblastoma) > 100 µM | GI50 (SW-620 colon) > 100 µM | GI50 (HOP-92 NSCLC) > 100 µM | GI50 (OVCAR-4 ovarian) > 100 µM | GI50 (HCC-2998 colon) > 100 µM | GI50 (T-47D breast) > 100 µM | GI50 (HT29 colon) > 100 µM | GI50 (MALME-3M melanoma) > 100 µM | GI50 (DU-145 prostate) > 100 µM | GI50 (SF-295 CNS) > 100 µM | GI50 (EKVX NSCLC) > 100 µM | GI50 (LOX IMVI melanoma) > 100 µM | GI50 (MDA-MB-435 melanoma) > 100 µM | GI50 (MCF7 breast) > 100 µM | GI50 (SF-268 CNS) > 100 µM | GI50 (SK-OV-3 ovarian) > 100 µM | GI50 (BT-549 breast) > 100 µM | GI50 (NCI-H522 lung) > 100 µM | GI50 (K-562 leukemia) > 100 µM | GI50 (COLO 205 colon) > 100 µM | GI50 (SK-MEL-5 melanoma) > 100 µM | GI50 (TK-10 renal) > 100 µM | GI50 (SNB-75 CNS) > 100 µM | GI50 (HOP-62 NSCLC) > 100 µM | GI50 (MOLT-4 leukemia) > 100 µM | GI50 (OVCAR-8 ovarian) > 100 µM | GI50 ([…]-0 renal) > 100 µM | GI50 (UACC-257 melanoma) > 100 µM | GI50 (PC-3 prostate) > 100 µM | GI50 (RXF 393 renal) 25 µM | GI50 (OVCAR-5 ovarian) > 100 µM | GI50 (SF-539 CNS) > 100 µM | GI50 (NCI-H226 lung) 19.5 µM | GI50 (UO-31 renal) > 100 µM | GI50 (HL-60(TB) leukemia) 22.7 µM | GI50 (MDA-MB-231 breast) > 100 µM | GI50 (CAKI-1 renal) > 100 µM | GI50 (A498 renal) 33.6 µM
> 100 µM: TGI (ACHN renal) | TGI (MDA-MB-468 breast) | TGI (NCI-H322M lung) | TGI (HS 578T breast) | TGI (SN12C renal) | TGI (SK-MEL-28 melanoma) | TGI (SNB-19 CNS) | TGI (NCI/ADR-RES ovarian) | TGI (KM12 colon) | TGI (RPMI-8226 leukemia) | TGI (HCT-15 colon) | TGI (CCRF-CEM leukemia) | TGI (A549 NSCLC) | TGI (OVCAR-3 ovarian) | TGI (HCT-116 colon) | TGI (NCI-H460 NSCLC) | TGI (UACC-62 melanoma) | TGI (NCI-H23 lung) | TGI (IGROV1 ovarian) | TGI (M14 melanoma) | TGI (U251 glioblastoma) | TGI (SW-620 colon) | TGI (HOP-92 NSCLC) | TGI (OVCAR-4 ovarian) | TGI (HCC-2998 colon) | TGI (T-47D breast) | TGI (HT29 colon) | TGI (MALME-3M melanoma) | TGI (DU-145 prostate) | TGI (SF-295 CNS) | TGI (EKVX NSCLC) | TGI (LOX IMVI melanoma) | TGI (MDA-MB-435 melanoma) | TGI (MCF7 breast) | TGI (SF-268 CNS) | TGI (SK-OV-3 ovarian) | TGI (BT-549 breast) | TGI (NCI-H522 lung) | TGI (K-562 leukemia) | TGI (COLO 205 colon) | TGI (SK-MEL-5 melanoma) | TGI (TK-10 renal) | TGI (SNB-75 CNS) | TGI (HOP-62 NSCLC) | TGI (MOLT-4 leukemia) | TGI (OVCAR-8 ovarian) | TGI (786-0 renal) | TGI (UACC-257 melanoma) | TGI (PC-3 prostate) | TGI (RXF 393 renal) | TGI (OVCAR-5 ovarian) | TGI (SF-539 CNS) | TGI (UO-31 renal) | TGI (MDA-MB-231 breast) | TGI (CAKI-1 renal) | TGI (A498 renal)
74.4 µM: TGI (NCI-H226 lung)
